In the NIST ThermoML archive (doi:10.1021/je8009336):

Key:
[1] = refractive index (Na D-line) (dimensionless); conditions: 101.33 kPa, Liquid, Standard Abbe refractometry
[2] = Liquid; for mass density: Vibrating tube method; for speed of sound: Vibrating Tube Densimeter
[3] = xn = mol fraction of the nth substance listed; conditions: 313.15 K, 101 kPa, Liquid; for speed of sound: Vibrating Tube Densimeter; for mass density: Vibrating tube method
[4] = refractive index (Na D-line) (dimensionless); xn = mol fraction of the nth substance listed; conditions: 313.15 K, 101 kPa, Liquid, Standard Abbe refractometry

Cc1ccccc1 [toluene]
[1]
Conditions | refractive index
298.15 K | 1.49399
313.15 K | 1.48509

[2]
Conditions | mass density, 298.15 K [kg/m3] | mass density, 313.15 K [kg/m3] | speed of sound, 313.15 K [m/s]
101 kPa | – | 848.2 | 1240.9
101.33 kPa | 862.1 | – | –

C1CCCC1 [cyclopentane]
[1]
Conditions | refractive index
298.15 K | 1.40342
313.15 K | 1.39456

[2]
Conditions | mass density, 298.15 K [kg/m3] | mass density, 313.15 K [kg/m3] | speed of sound, 313.15 K [m/s]
101 kPa | – | 725 | 1130
101.33 kPa | 740 | – | –

CC1CCCCC1 [methylcyclohexane] + CCc1ccccc1
Conditions | mass density, [3] [kg/m3] | refractive index, [4] | speed of sound, [3] [m/s]
x1 = 0.0509 | 843.8 | 1.48108 | 1249.9
x1 = 0.0975 | 838.9 | 1.4774 | 1243.4
x1 = 0.1957 | 828.6 | 1.46965 | 1230.3
x1 = 0.2794 | 820 | 1.46339 | 1219.8
x1 = 0.4006 | 807.9 | 1.45428 | 1205.4
x1 = 0.4962 | 798.4 | 1.44736 | 1194.9
x1 = 0.5977 | 788.6 | 1.44003 | 1184.5
x1 = 0.6968 | 779.2 | 1.43303 | 1174.9
x1 = 0.7988 | 769.7 | 1.42601 | 1165.7
x1 = 0.8973 | 760.9 | 1.41941 | 1157.5
x1 = 0.9483 | 756.4 | 1.41609 | 1153.5
x1 = 1 | 752 | 1.41272 | 1149.6

c1ccccc1 [benzene]
[1]
Conditions | refractive index
298.15 K | 1.49775
313.15 K | 1.48777

[2]
Conditions | mass density, 298.15 K [kg/m3] | mass density, 313.15 K [kg/m3] | speed of sound, 313.15 K [m/s]
101 kPa | – | 857.5 | 1230.5
101.33 kPa | 873.5 | – | –

c1ccccc1 [benzene] + C1CCCCC1
x2 = 0
Conditions | mass density [kg/m3] | refractive index | speed of sound [m/s]
[3] | 857.5 | – | 1230.5
[4] | – | 1.48777 | –

CCc1ccccc1 [ethylbenzene]
[1]
Conditions | refractive index
298.15 K | 1.49304
313.15 K | 1.48538

[2]
Conditions | mass density, 298.15 K [kg/m3] | mass density, 313.15 K [kg/m3] | speed of sound, 313.15 K [m/s]
101 kPa | – | 849.3 | 1257.3
101.33 kPa | 862.5 | – | –

C1CCCCC1 [cyclohexane]
[1]
Conditions | refractive index
298.15 K | 1.42353
313.15 K | 1.41513

[2]
Conditions | mass density, 298.15 K [kg/m3] | mass density, 313.15 K [kg/m3] | speed of sound, 313.15 K [m/s]
101 kPa | – | 759.6 | 1181.7
101.33 kPa | 773.8 | – | –

CC1CCCCC1 [methylcyclohexane]
[1]
Conditions | refractive index
298.15 K | 1.42053
313.15 K | 1.41272

[2]
Conditions | mass density, 298.15 K [kg/m3] | mass density, 313.15 K [kg/m3] | speed of sound, 313.15 K [m/s]
101 kPa | – | 752 | 1149.6
101.33 kPa | 764.9 | – | –

c1ccccc1 [benzene] + CC1CCCCC1
x2 = 0
Conditions | mass density [kg/m3] | refractive index | speed of sound [m/s]
[3] | 857.5 | – | 1230.5
[4] | – | 1.48777 | –
